Reference: US12240827B2, “Serotonin 5-HT2B inhibitory compounds” (Zoetis Services LLC, priority 2019, dated 2025)

How the values were obtained:
c5-HT2B = conditions: literature value; cited from earlier work
dogs with Stage B2 MMVD = conditions: cited from earlier work
hERG = target: T1, hERG (Homo sapiens, UniProt Q12809); test: hERG in-vitro assay, IonWorks Barracuda population patch clamp; assay type: cell-based; conditions: hERG/HEK293 cells; hERG current block, 5 minutes exposure
T1 construct: stably transfected with full length hERG cDNA; expressed in transfected cells; host or cells: HEK293
T1 sequence (Q12809 whole entry): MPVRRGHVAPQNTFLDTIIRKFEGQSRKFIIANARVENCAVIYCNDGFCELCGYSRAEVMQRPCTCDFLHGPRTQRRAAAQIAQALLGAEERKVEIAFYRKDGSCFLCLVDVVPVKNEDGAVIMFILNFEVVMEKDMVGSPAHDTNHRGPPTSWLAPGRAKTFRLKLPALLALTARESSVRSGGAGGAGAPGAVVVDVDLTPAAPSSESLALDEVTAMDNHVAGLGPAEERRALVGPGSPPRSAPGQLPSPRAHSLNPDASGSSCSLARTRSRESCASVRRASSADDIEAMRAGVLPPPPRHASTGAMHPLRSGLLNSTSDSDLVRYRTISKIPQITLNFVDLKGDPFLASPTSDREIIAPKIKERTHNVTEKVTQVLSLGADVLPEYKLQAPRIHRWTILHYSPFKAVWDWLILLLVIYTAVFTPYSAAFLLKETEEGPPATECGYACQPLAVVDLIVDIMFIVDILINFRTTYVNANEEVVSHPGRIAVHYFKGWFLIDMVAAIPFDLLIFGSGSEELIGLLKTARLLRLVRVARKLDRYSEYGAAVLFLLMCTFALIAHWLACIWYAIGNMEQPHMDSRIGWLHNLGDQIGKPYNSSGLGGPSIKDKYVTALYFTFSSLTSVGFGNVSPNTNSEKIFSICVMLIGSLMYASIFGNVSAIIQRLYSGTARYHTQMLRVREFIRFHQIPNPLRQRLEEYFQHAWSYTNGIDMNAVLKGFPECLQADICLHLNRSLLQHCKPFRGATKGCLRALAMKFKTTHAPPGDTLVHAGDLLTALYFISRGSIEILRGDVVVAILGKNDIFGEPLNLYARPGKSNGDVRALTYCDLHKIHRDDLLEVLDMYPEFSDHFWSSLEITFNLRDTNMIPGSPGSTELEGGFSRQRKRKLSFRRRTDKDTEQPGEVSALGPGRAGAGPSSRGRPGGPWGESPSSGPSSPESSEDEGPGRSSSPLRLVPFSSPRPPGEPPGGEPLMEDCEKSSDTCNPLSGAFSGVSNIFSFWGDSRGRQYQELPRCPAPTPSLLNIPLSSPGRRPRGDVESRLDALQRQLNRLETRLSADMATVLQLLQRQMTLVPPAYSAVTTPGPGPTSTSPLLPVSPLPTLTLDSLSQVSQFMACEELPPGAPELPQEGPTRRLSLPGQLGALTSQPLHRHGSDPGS
Procedure: Stock solutions of compounds of the invention and positive control (cisapride; 0.001-3 μM) were prepared in DMSO. Stock solutions were diluted in a HEPES-buffered physiological saline solution. Test and control solutions contained 0.3% DMSO. Human hERG/HEK293 renal epithelial cells stably transfected with full length hERG cDNA were cultured in Dulbecco's Modified Eagle Medium/Nutrient Mixture F-12 (D-MEM/F-12) supplemented with 10% fetal bovine serum, 100 U/mL penicillin G sodium, 100 μg/mL streptomycin sulfate and 500 μg/mL G418. Before testing, cells in culture dishes were rinsed with Hank's Balanced Salt Solution (HBSS) and detached with accutase. Immediately before use in the IonWorks Barracuda™ system, the cells were washed with buffered physiological saline solution (HB-PS) buffer to remove the accutase and re-suspended in 5 mL of HB-PS. The test article effects were evaluated using IonWorks Barracuda™ systems (Molecular Devices Corporation, Union City, CA). HEPES-buffered intracellular solution for whole cell recordings was loaded into the intracellular compartment of the Population Patch Clamp™ (PPC) planar electrode.
Extracellular buffer (HB-PS) was loaded into PPC planar electrode plate wells (11 μL/well). The cell suspension was pipetted into the wells of the PPC planar electrode (9 μL/well). After establishment of a whole-cell configuration (the perforated patch), membrane currents were recorded using patch clamp amplifier in the IonWorks Barracuda™ system. The current recordings were performed one (1) time before test article application to the cells (baseline) and one (1) time after application of the test article. Test article concentrations were applied to naïve cells. Each application consisted of addition of 20 μL of 2× concentrated test article solution to the total 40 μL of final volume of the extracellular well of the PPC plate. Duration of exposure to each compound concentration was five (5) minutes. hERG current was elicited using a pulse pattern with fixed amplitudes (the first conditioning pre-pulse to 10 mV for 60 second, the second conditioning pre-pulse: −90 mV for 20 ms; the test pulse: +40 mV for 100 ms) from a holding potential of 0 mV (‘zero holding’ procedure). hERG current was measured as a difference between the peak current at 1 ms and at the end of test step to +40 mV. Data acquisition and analyses were performed using the IonWorks Barracuda™ system operation software (version 2.0.2). The decrease in current amplitude after test article application was used to calculate the percent block relative to control. Results for each test article concentration (n≥1) were averaged; the mean and standard deviation values were calculated and used to generate dose-response curves.

canine 5-HT2B receptor = target: T2, canine 5-HT2B receptor (Canis lupus familiaris, UniProt Q50DZ8); test: Canine 5-HT2B (c5-HT2B) in-vitro assay, FLIPR calcium response; assay type: cell-based; conditions: CHO-K1 cells stably expressing canine 5-HT2B receptor; inhibition of EC80 serotonin calcium response
T2 construct: expressed in transfected cells; host or cells: CHO-K1
T2 sequence (Q50DZ8 1-434): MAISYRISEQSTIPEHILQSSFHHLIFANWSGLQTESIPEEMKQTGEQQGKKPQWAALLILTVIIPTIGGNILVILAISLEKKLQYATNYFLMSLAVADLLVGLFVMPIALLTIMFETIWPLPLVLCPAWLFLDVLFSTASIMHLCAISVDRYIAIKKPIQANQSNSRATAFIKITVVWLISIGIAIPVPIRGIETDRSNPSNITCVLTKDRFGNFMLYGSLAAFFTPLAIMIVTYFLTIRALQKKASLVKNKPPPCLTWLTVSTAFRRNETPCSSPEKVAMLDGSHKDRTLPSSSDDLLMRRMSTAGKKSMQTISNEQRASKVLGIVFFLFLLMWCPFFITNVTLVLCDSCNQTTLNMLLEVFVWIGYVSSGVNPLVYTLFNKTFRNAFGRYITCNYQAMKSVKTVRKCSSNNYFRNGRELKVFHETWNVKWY
Procedure: CHO-K1 cells stably expressing the canine 5-HT2B receptor were seeded at 20,000 cells per well in 20 μl culture media (DMEM with GlutaMAX™ high glucose+5% dialyzed FBS+10 mM HEPES+1×MEM Non-Essential Amino Acids of a 384-well black plate with clear bottom for at least 18 hours at 37° C. and 5% CO2. The cell plate was loaded with 20 μl/well of the FLIPR® Calcium 5 Assay kit prepared in HBSS containing calcium and magnesium supplemented with 20 mM HEPES and 5 mM Probenecid at pH 7.4 and incubated at 37° C. and 5% CO2 for 30 minutes and then an additional 30 minutes at room temperature. The intracellular calcium response was measured using the FLIPR Tetra® instrument measuring the kinetic response of the Calcium 5 dye at an excitation wavelength of 470-495 nm and emission wavelength of 515-575 nm at room temperature. The cells were initially challenged with a 5× concentration of the antagonist (10 μl/well) after an initial baseline recording and the calcium response was recorded for almost 2 minutes. After the completion of the initial antagonist challenge, the cell plate was incubated at room temperature in the FLIPR Tetra® instrument for 10 minutes. Finally, a second kinetic assay was performed after the 10 minute incubation at room temperature to measure the inhibitory response of the EC80 concentration of serotonin (15 μl/well) after an initial baseline recording. The IC50 concentration was determined for each antagonist tested.

## O=C(c1ccc(-c2ccc(OC(F)(F)F)cc2)cc1)N1CCC(c2nc3ccccc3[nH]2)CC1 [CA-2, (4-(1H-benzo[d]imidazol-2-yl)piperidin-1-yl)(4′-(trifluoromethoxy)-[1,1′-biphenyl]-4-yl)methanone]
c5-HT2B
  IC50: 95 nM

## COc1ccc(-c2nc3ccc(C4=NNC(=O)CC4C)cc3[nH]2)cc1 (centres unmarked) [pimobendan]
Dogs with Stage B2 MMVD; pimobendan 0.2 or 0.3 mg/kg twice a day
  time longer to develop CHF or die from MMVD than dogs receiving placebo: 462 days
Dogs with Stage B2 MMVD; versus placebo
  delay in prolonging preclinical stage: 60%

## Cc1c[nH]c(C2CCN(C(=O)c3ccc(-c4c(C)[nH]c5ccccc45)cc3)CC2)n1 [Example 26, (4-(4-methyl-1H-imidazol-2-yl)piperidin-1-yl)(4-(2-methyl-1H-indol-3-yl)phenyl)methanone]
hERG
  IC50: 13100 nM
Canine 5-HT2B receptor
  IC50: 0.84 nM

## O=C(c1ccc2c(-c3ccccc3)c[nH]c2c1)N1CCC(c2ncc[nH]2)CC1 [Example 32, (4-(1H-imidazol-2-yl)piperidin-1-yl)(3-phenyl-1H-indol-6-yl)methanone]
hERG
  IC50: 15200 nM
Canine 5-HT2B receptor
  IC50: 7.3 nM

## O=C(c1ccc(-c2ccc(C(F)F)cc2)cc1)N1CCC(c2ncc[nH]2)CC1 [Example 16, (4-(1H-imidazol-2-yl)piperidin-1-yl)(4′-(difluoromethyl)-[1,1′-biphenyl]-4-yl)methanone]
hERG
  IC50: 2740 nM
Canine 5-HT2B receptor
  IC50: 0.31 nM

## Cc1cnc(C2CCN(C(=O)c3ccc4c(-c5ccccc5)c[nH]c4c3)CC2)[nH]1 [Example 31, (4-(5-methyl-1H-imidazol-2-yl)piperidin-1-yl)(3-phenyl-1H-indol-6-yl)methanone]
hERG
  IC50: 19600 nM
Canine 5-HT2B receptor
  IC50: 4.5 nM

## O=C(c1ccc(-c2ccc(C(F)(F)F)cc2)cc1)N1CCC(Nc2ncc[nH]2)CC1 [Example 7, (4-((1H-imidazol-2-yl)amino)piperidin-1-yl)(4′-(trifluoromethyl)-[1,1′-biphenyl]-4-yl)methanone]
hERG
  IC50: 2500 nM
Canine 5-HT2B receptor
  IC50: 30.2 nM

## O=C(c1ccc2c(-c3c[nH]c4ccccc34)c[nH]c2c1)N1CCC(c2ncc[nH]2)CC1 [Example 29, [4-(1H-imidazol-2-yl)-1-piperidyl]-[3-(1H-indol-3-yl)-1H-indol-6-yl]methanone]
hERG
  IC50: 27100 nM
Canine 5-HT2B receptor
  IC50: 1.4 nM

## Cc1cnc(C2CCN(C(=O)c3ccc(-c4n[nH]c5ccccc45)cc3)CC2)[nH]1 [Example 6, (4-(1H-indazol-3-yl)phenyl)(4-(5-methyl-1H-imidazol-2-yl)piperidin-1-yl)methanone]
hERG
  IC50: 35500 nM
Canine 5-HT2B receptor
  IC50: 0.65 nM

## Cc1cnc(C2CCN(C(=O)c3ccc(-c4c[nH]c5ccccc45)cc3)CC2)[nH]1 [Example 5, (4-(1H-indol-3-yl)phenyl)(4-(5-methyl-1H-imidazol-2-yl)piperidin-1-yl)methanone]
hERG
  IC50: 6630 nM
Canine 5-HT2B receptor
  IC50: 0.33 nM

## Cc1c[nH]c(C2CCN(C(=O)c3ccc(-c4c[nH]c5ccc(F)cc45)cc3)CC2)n1 [Example 34, (4-(5-fluoro-1H-indol-3-yl)phenyl)(4-(4-methyl-1H-imidazol-2-yl)piperidin-1-yl)methanone]
hERG
  IC50: 13900 nM
Canine 5-HT2B receptor
  IC50: 21 nM

## O=C(c1ccc(-c2n[nH]c3ccccc23)cc1)N1CCC(c2ncc[nH]2)CC1 [Example 24, (4-(1H-imidazol-2-yl)piperidin-1-yl)(4-(1H-indazol-3-yl)phenyl)methanone]
hERG
  IC50: 33600 nM
Canine 5-HT2B receptor
  IC50: 0.33 nM

## O=C(c1ccc(-c2ccc(C(F)(F)F)s2)cc1)N1CCC(c2ncc[nH]2)CC1 [Example 22, (4-(1H-imidazol-2-yl)piperidin-1-yl)(4-(5-(trifluoromethyl)thiophen-2-yl)phenyl)methanone]
hERG
  IC50: 2800 nM
Canine 5-HT2B receptor
  IC50: 20.5 nM

## O=C(c1ccc(-c2ccc(F)cc2)cc1)N1CCC(c2ncc[nH]2)CC1 [CA-4, (4-(1H-imidazol-2-yl)piperidin-1-yl)(4′-fluoro-[1,1′-biphenyl]-4-yl)methanone, reference compound]
hERG
  IC50: < 30 nM
Canine 5-HT2B receptor
  IC50: 0.08 nM

## O=C(c1ccc(-c2ccccc2)cc1)N1CCC(c2ncc[nH]2)CC1 [CA-3, (4-(1H-imidazol-2-yl)piperidin-1-yl)([1,1′-biphenyl]-4-yl)methanone, reference compound]
hERG
  IC50: 611 nM
Canine 5-HT2B receptor
  IC50: 0.64 nM
